The text below walks through data of patent publication US11236088B2, “Heterocyclic compounds and their application in medicine” (KIND PHARMACEUTICAL, priority 2017, dated 2022).

Each structure is given as a SMILES string.

In the assay the test system is MCF-7 cells. Description: Inhibitory effect on the growth of MCF-7 cells (CellTiter-Glo, 10 days). In kind it is cell-based. Particulars: Homo sapiens, MCF7, 240 h, 10 days incubation, CellTiter-Glo chemiluminescence. As to the method:
Assay 2: Inhibitory effect of compounds of the present invention on the growth of MCF-7 cells by a cell drug inhibition experiment
1. Experimental Materials
1) Reagents: DMEM high glucose medium (Lonza #12-604F), FBS (BI #04-00F1ACS), antibiotics (Thermofisher #15070063), bovine insulin (Western reagent #11070-73-8), trypsin (Thermofisher #25200-056), CellTiter-Glo reagent (Promega #G7571)
2) Instruments: American MD-M5 microplate reader 5;
2. Experimental Procedures:
1) 100 μl of MCF-7 cells was added to a medium in a white opaque 96-well plate at a density of 5000 cells/ml in which the medium is DMEM high-glucose medium supplemented with 10% FBS. The cells were cultured in a 5% CO2 cell incubator at 37° C. for 24 hours.
2) Different concentrations of corresponding compounds were added to the 96-well plate for incubating MCF-7 cells. The cells were incubated for 10 days in a 5% CO2 cell incubator.
3) To each well of MCF-7 cells, 100 μl of CellTiter-Glo reagent was added and then set aside at room temperature for 10 minutes. The chemiluminescence signal was read using an MD-M5 microplate reader, and the data was processed using GraphPad Prism to calculate IC50 value.
For orientation: ATP-based viability assays read luminescence as a measure of living cells.
For orientation: IC50 means the concentration that gives 50% inhibition. The low end stands for higher potency, the high end for lower potency. In turn, `CC(C)C[C@H]1[C@H](c2ccc(NC3CN(CCCF)C3)cc2)c2ccc3[nH]ncc3c2CN1C` [Example 1, 1-(3-fluoropropyl)-N-(4-((6R, 7S)-7-isobutyl-8-methyl-6,7,8,9-tetrahydro-3H-pyrazolo [3,4-h]isoquinolin-6-yl)phenyl)azetidin-3-amine] showed an IC50 of 1 to 10 nM.

Turning to `CC(C)C[C@H]1[C@H](c2c(F)cc(NC3CN(CCCF)C3)cc2F)c2ccc3[nH]ncc3c2CN1C` [Example 2, N-(3,5-difluoro-4-((6S, 7S)-7-isobutyl-8-methyl-6,7,8,9-tetrahydro-3H-pyrazolo [3,4-h]isoquinolin-6-yl)phenyl)-1-(3-fluoropropyl) azetidin-3-amine], the IC50 is no more than 1 nM.

Molecule `CC(C)C[C@H]1[C@H](c2c(F)cc(NC3CN(CC(F)CF)C3)cc2F)c2ccc3[nH]ncc3c2CN1C` (stereo partly drawn) [Example 3, N-(3,5-difluoro-4-((6S, 7S)-7-isobutyl-8-methyl-6,7,8,9-tetrahydro-3H-pyrazolo [3,4-h]isoquinolin-6-yl)phenyl)-1-(2,3-difluoropropyl) azetidin-3-amine] came in with a half-inhibitory concentration (IC50) greater than 1000 nM.

For the molecule `CC(C)C[C@H]1[C@H](c2c(F)cc(NC3CN(CCC(F)(F)F)C3)cc2F)c2ccc3[nH]ncc3c2CN1C` [Example 4, N-(3,5-difluoro-4-((6S, 7S)-7-isobutyl-8-methyl-6,7,8,9-tetrahydro-3H-pyrazolo [3,4-h]isoquinolin-6-yl)phenyl)-1-(3,3,3-trifluoropropyl) azetidin-3-amine], the IC50 is greater than 1000 nM.

Regarding `CN1Cc2c(ccc3[nH]ncc23)[C@@H](c2c(F)cc(NC3CN(CCCF)C3)cc2F)[C@@H]1CC1CC1` [Example 5, N-(4-((6S, 7S)-7-cyclopropylmethyl-8-methyl-6,7,8,9-tetrahydro-3H-pyrazolo [3,4-h]isoquinolin-6-yl)-3,5-difluorophenyl)-1-(3-fluoropropyl) azetidin-3-amine], the IC50 was greater than 1000 nM.

For the molecule `CCCN1CC(Nc2cc(F)c([C@@H]3c4ccc5[nH]ncc5c4CN(C)[C@H]3CC(C)C)c(F)c2)C1` [Example 6, N-(3,5-difluoro-4-((6S, 7S)-7-isobutyl-8-methyl-6,7,8,9-tetrahydro-3H-pyrazolo [3,4-h]isoquinolin-6-yl)phenyl)-1-propylazetidin-3-amine], the IC50 is greater than 1000 nM.

As to `CCCCN1CC(Nc2cc(F)c([C@@H]3c4ccc5[nH]ncc5c4CN(C)[C@H]3CC(C)C)c(F)c2)C1` [Example 7, 1-butyl-N-(3,5-difluoro-4-((6S, 7S)-7-isobutyl-8-methyl-6,7,8,9-tetrahydro-3H-pyrazolo [3,4-h]isoquinolin-6-yl)phenyl) azetidin-3-amine], the IC50 was greater than 1000 nM.

Regarding `CC(C)C[C@H]1[C@H](c2c(F)cc(NC3CN(CC(C)C)C3)cc2F)c2ccc3[nH]ncc3c2CN1C` [Example 8, N-(3,5-difluoro-4-((6S, 7S)-7-isobutyl-8-methyl-6,7,8,9-tetrahydro-3H-pyrazolo [3,4-h]isoquinolin-6-yl)phenyl)-1-isobutylazetidin-3-amine], the IC50 was greater than 1000 nM.

The molecule `CCCCCN1CC(Nc2cc(F)c([C@@H]3c4ccc5[nH]ncc5c4CN(C)[C@H]3CC(C)C)c(F)c2)C1` [Example 9, N-(3,5-difluoro-4-((6S, 7S)-7-isobutyl-8-methyl-6,7,8,9-tetrahydro-3H-pyrazolo [3,4-h]isoquinolin-6-yl)phenyl)-1-pentylazetidin-3-amine] gave an IC50 greater than 1000 nM.

Molecule `CC(C)C[C@H]1[C@H](c2c(F)cc(SC3CN(CCCF)C3)cc2F)c2ccc3[nH]ncc3c2CN1C` [Example 10, (6S, 7S)-6-(2,6-difluoro-4-((1-(3-fluoropropyl)azetidin-3-yl)thio)phenyl)-7-isobutyl-8-methyl-6,7,8,9-tetrahydro-3H-pyrazolo [3,4-h]isoquinoline] came in with an IC50 of no more than 1 nM.

In turn, `CCCN1CC(Sc2cc(F)c([C@@H]3c4ccc5[nH]ncc5c4CN(C)[C@H]3CC(C)C)c(F)c2)C1` [Example 11] showed an IC50 of no more than 1 nM.

As for `CCCCN1CC(Sc2cc(F)c([C@@H]3c4ccc5[nH]ncc5c4CN(C)[C@H]3CC(C)C)c(F)c2)C1` [Example 12, (6S, 7S)-6-(4-((1-butylazetidin-3-yl)thio)-2,6-difluorophenyl)-7-isobutyl-8-methyl-6,7,8,9-tetrahydro-3H-pyrazolo [3,4-h]isoquinoline], the IC50 lay within 10 to 1000 nM.

`CC(C)C[C@H]1[C@H](c2c(F)cc(SC3CN(CC(C)C)C3)cc2F)c2ccc3[nH]ncc3c2CN1C` [Example 13, (6S, 7S)-6-(2,6-difluoro-4-((1-isobutylazetidin-3-yl)thio)phenyl)-7-isobutyl-8-methyl-6,7,8,9-tetrahydro-3H-pyrazolo [3,4-h]isoquinoline] returned an IC50 of 10 to 1000 nM.

Take `CCCCCN1CC(Sc2cc(F)c([C@@H]3c4ccc5[nH]ncc5c4CN(C)[C@H]3CC(C)C)c(F)c2)C1` [Example 14, (6S, 7S)-6-(2,6-difluoro-4-((1-pentylazetidin-3-yl)thio)phenyl)-7-isobutyl-8-methyl-6,7,8,9-tetrahydro-3H-pyrazolo [3,4-h]isoquinoline]: the IC50 is greater than 1000 nM.

The molecule `CC(C)C[C@H]1[C@H](c2c(F)cc(OC3CN(CCCF)C3)cc2F)c2ccc3[nH]ncc3c2CN1C` [Example 15, (6S, 7S)-6-(2,6-difluoro-4-((1-(3-fluoropropyl)azetidin-3-yl)oxy)phenyl)-7-isobutyl-8-methyl-6,7,8,9-tetrahydro-3H-pyrazolo [3,4-h]isoquinoline] registered an IC50 of no more than 1 nM.

Regarding `CCCN1CC(Oc2cc(F)c([C@@H]3c4ccc5[nH]ncc5c4CN(C)[C@H]3CC(C)C)c(F)c2)C1` [Example 16, (6S, 7S)-6-(2,6-difluoro-4-((1-propylazetidin-3-yl)oxy)phenyl)-7-isobutyl-8-methyl-6,7,8,9-tetrahydro-3H-pyrazolo [3,4-h]isoquinoline], the IC50 was no more than 1 nM.

Regarding `CC(C)C[C@H]1[C@H](c2c(F)cc(OC3CN(CC(C)C)C3)cc2F)c2ccc3[nH]ncc3c2CN1C` [Example 17, (6S, 7S)-6-(2,6-difluoro-4-((1-isobutylazetidin-3-yl)oxy)phenyl)-7-isobutyl-8-methyl-6,7,8,9-tetrahydro-3H-pyrazolo [3,4-h]isoquinoline], the IC50 lay in the range of 1 to 10 nM.

With `CCCCN1CC(Oc2cc(F)c([C@@H]3c4ccc5[nH]ncc5c4CN(C)[C@H]3CC(C)C)c(F)c2)C1` [Example 18], the IC50 was greater than 1000 nM.

In turn, `CCCCCN1CC(Oc2cc(F)c([C@@H]3c4ccc5[nH]ncc5c4CN(C)[C@H]3CC(C)C)c(F)c2)C1` [Example 19] gave a half-maximal inhibitory concentration (IC50) greater than 1000 nM.

`CN1Cc2c(ccc3[nH]ncc23)[C@@H](c2c(F)cc(OC3CN(CCCF)C3)cc2F)[C@@H]1CC1CC1` [Example 20, (6S, 7S)-7-(cyclopropylmethyl)-6-(2,6-difluoro-4-((1-(3-fluoropropyl)azetidin-3-yl)oxy)phenyl)-8-methyl-6,7,8,9-tetrahydro-3H-pyrazolo [3,4-h]isoquinoline] registered an IC50 greater than 1000 nM.

As to `CCCN1CC(Oc2cc(F)c([C@@H]3c4ccc5[nH]ncc5c4CN(C)[C@H]3CC3CC3)c(F)c2)C1` [Example 21, (6S, 7S)-7-cyclopropylmethyl-6-(2,6-difluoro-4-((1-propylazetidin-3-yl)oxy)phenyl)-8-methyl-6,7,8,9-tetrahydro-3H-pyrazolo [3,4-h]isoquinoline], the IC50 was greater than 1000 nM.

The molecule `CC(C)CN1CC(Oc2cc(F)c([C@@H]3c4ccc5[nH]ncc5c4CN(C)[C@H]3CC3CC3)c(F)c2)C1` [Example 22, (6S, 7S)-7-cyclopropylmethyl-6-(2,6-difluoro-4-((1-isobutylazetidin-3-yl)oxy)phenyl)-8-methyl-6,7,8,9-tetrahydro-3H-pyrazolo [3,4-h]isoquinoline] came in with an IC50 greater than 1000 nM.

Molecule `CCCCN1CC(Oc2cc(F)c([C@@H]3c4ccc5[nH]ncc5c4CN(C)[C@H]3CC3CC3)c(F)c2)C1` [Example 23, (6S, 7S)-6-(4-((1-butylazetidin-3-yl)oxy)-2,6-difluorophenyl)-7-cyclopropylmethyl-8-methyl-6,7,8,9-tetrahydro-3H-pyrazolo [3,4-h]isoquinoline] had an IC50 greater than 1000 nM.

`CCCCCN1CC(Oc2cc(F)c([C@@H]3c4ccc5[nH]ncc5c4CN(C)[C@H]3CC3CC3)c(F)c2)C1` [Example 24, (6S, 7S)-7-cyclopropylmethyl-6-(2,6-difluoro-4-((1-pentylazetidin-3-yl)oxy)phenyl)-8-methyl-6,7,8,9-tetrahydro-3H-pyrazolo [3,4-h]isoquinoline]: the half-inhibitory concentration (IC50) is greater than 1000 nM.

In turn, `CN1Cc2c(ccc3[nH]ncc23)[C@@H](c2c(F)cc(SC3CN(CCCF)C3)cc2F)[C@@H]1CC1CC1` [Example 25] came in with an IC50 of 10 to 1000 nM.

Regarding `CCCN1CC(Sc2cc(F)c([C@@H]3c4ccc5[nH]ncc5c4CN(C)[C@H]3CC3CC3)c(F)c2)C1` [Example 26, (6S, 7S)-7-cyclopropylmethyl-6-(2,6-difluoro-4-((1-propylazetidin-3-yl)thio)phenyl)-8-methyl-6,7,8,9-tetrahydro-3H-pyrazolo [3,4-h]isoquinoline], the IC50 fell in the range of 10 to 1000 nM.

On to `CCCCN1CC(Sc2cc(F)c([C@@H]3c4ccc5[nH]ncc5c4CN(C)[C@H]3CC3CC3)c(F)c2)C1` [Example 27, (6S, 7S)-6-(4-((1-butylazetidin-3-yl)thio)-2,6-difluorophenyl)-7-cyclopropylmethyl-8-methyl-6,7,8,9-tetrahydro-3H-pyrazolo [3,4-h]isoquinoline], for which the IC50 is greater than 1000 nM.
